This note sets out measurements from US7947734B2, “Substituted para-trifluoromethyl phenylate compounds and its preparation and use thereof” (Sinochem Corporation, priority 2005, dated 2011).

Structures are written as SMILES.

The subject of test [1] is Carmine spider mite (Tetranychus cinnabarinus). Briefly: Acaricidal activity, Airbrush spraying tower, mortality.
Method: (§1) Technical samples were dissolved in acetone/methanol (1:1) and diluted to required concentration with water containing 0.1% of tween 80.
(§2) Armyworm (Leucania separata), diamondback moth (Plutella xylostella) culex mosquitoes (Culex pippens pallens), Myzus persicae (Myzus persicae and Carmine spider mite (Tetranychus cinnabarinus) were treated with Airbrush spraying tower, and culex mosquito was treated with dipping culture method. The pressure of Airbrush spraying tower was 10 psi (about 0.7 kg/cm2) and the amount of spraying was 0.5 ml. Mortality investigation of test insects was carried out 2 to 3 days after the treatment.
Test [2] concerns wheat powdery mildew (Blumeria graminis). Nature of the test: Fungicidal protective activity against wheat powdery mildew on potted plants. It is filed as in vivo.
Test [3] has the same test system. Briefly: Therapy activity against wheat powdery mildew on potted plants. It is filed as in vivo.
The test system of another test is Myzus persicae. Nature of the test: Insecticidal activity, Airbrush spraying tower, mortality. The note with it: 600 mg/L.
The test system of test [4] is cucumber downy mildew (Pseudoperonospora cubenis). Nature of the test: Fungicidal protective activity against cucumber downy mildew on potted plants. The note with it: 400 mg/L. It is filed as in vivo.
Where [5] appears, read: 0.19 mg/L, wheat powdery mildew.
Where [6] appears, read: 0.39 mg/L, wheat powdery mildew.
Where [7] appears, read: 0.78 mg/L, wheat powdery mildew.
Where [8] appears, read: 1.56 mg/L, wheat powdery mildew.
The mark [9] stands for this setting: 3.13 mg/L, wheat powdery mildew.
Where [10] appears, read: 6.25 mg/L, wheat powdery mildew.
Setting [11] is: 12.5 mg/L, wheat powdery mildew.

Method for Myzus persicae: as §1, §2

For `CC(C)(C)c1ccc(CSc2cnn(C(C)(C)C)c(=O)c2Cl)cc1` [Pyridaben, reference compound], the “control of Carmine spider mite” value in test [1] (10 mg/L) came to 95%.
As for `COC=C(C(=O)OC)c1ccccc1COc1ccc(C(F)(F)F)cc1Cl` [compound 1], the “Protective activity % one day” value is recorded as 30% in test [2] (setting [5]); 55% in test [2] (setting [6]); 90% in test [2] (setting [7]); 100% in test [2] (setting [8]); 100% in test [2] (setting [9]); 100% in test [2] (setting [10]). Also, the “Protective activity % one day” value in test [2] (setting [11]) was found to be 100%; in test [2] (25 mg/L, wheat powdery mildew), 100%. Moreover, the “control against wheat powdery mildew” value in test [2] (12.5 mg/L), in test [2] (200 mg/L) and in test [2] (400 mg/L) was 100% throughout. For the same molecule, the “Therapy activity % 3 days” value in test [3] (1.56 mg/L) is given as 50%; in test [3] (3.125 mg/L), 80%; in test [3] (6.25 mg/L), 100%; in test [3] (12.5 mg/L), 100%. The “control of Carmine spider mite” value in test [1] (10 mg/L) came to 95%; in test [1] (50 mg/L) it was 100%; in test [1] (150 mg/L) it was 100%; in test [1] (600 mg/L), 100%. In addition, in the test with Myzus persicae, the “control of Myzus persicae” value amounted to 100%. For the same molecule, in test [4], the “control against cucumber downy mildew” value worked out at 100%.
`CON=C(C(=O)OC)c1ccccc1COc1ccc(C(F)(F)F)cc1Cl` [compound 4]: the “Protective activity % one day” value worked out at 70% in test [2] (setting [5]); 90% in test [2] (setting [6]); 98% in test [2] (setting [7]); 100% in test [2] (setting [8]); 100% in test [2] (setting [9]); 100% in test [2] (setting [10]). The “Protective activity % one day” value in test [2] (setting [11]) was 100%; in test [2] (25 mg/L, wheat powdery mildew), 100%. Also, the “control against wheat powdery mildew” value in test [2] (12.5 mg/L), in test [2] (200 mg/L) and in test [2] (400 mg/L) was 100% throughout. Further, in test [1] (600 mg/L), the “control of Carmine spider mite” value is 100%. Besides, in test [4], the “control against cucumber downy mildew” value is 100%.
As to `CNC(=O)C(=NOC)c1ccccc1COc1ccc(C(F)(F)F)cc1Cl` [compound 7], the “Protective activity % one day” value in test [2] (setting [5]) is 50%; in test [2] (setting [6]), 85%; in test [2] (setting [7]), 90%; in test [2] (setting [8]) it was 100%; in test [2] (setting [9]), 100%; in test [2] (setting [10]) it was 100%. The “Protective activity % one day” value in test [2] (setting [11]) turned out to be 100%; in test [2] (25 mg/L, wheat powdery mildew) it was 100%. Further, the “control against wheat powdery mildew” value in test [2] (12.5 mg/L), in test [2] (200 mg/L) and in test [2] (400 mg/L) was 100% in each case. In addition, the “control against cucumber downy mildew” value in test [4] turned out to be 100%.
`COC(=O)N(OC)c1ccccc1COc1ccc(C(F)(F)F)cc1Cl` [compound 10]: the figures for the “control against wheat powdery mildew” value in test [2] (200 mg/L) and in test [2] (400 mg/L) were “more than 95%” and 100%, respectively.
In the case of `COC=C(C(=O)OC)c1ccccc1Oc1cc(Oc2ccc(C(F)(F)F)cc2Cl)ncn1` [compound 16], the “control against wheat powdery mildew” value in test [2] (400 mg/L) is on record as 100%.
For the molecule `CO/N=C(/C(=O)OC)c1ccccc1COc1ccccc1C` [kresoxin-methyl, reference compound], the inhibition at 0.19 µg/mL in test [2] (Blumeria graminis, 24 h, 0.19 mg/L, wheat powdery mildew, read-out: Protective activity % one day) came out at 0%. Also, the inhibition at 0.39 µg/mL in test [2] (Blumeria graminis, 24 h, 0.39 mg/L, wheat powdery mildew, read-out: Protective activity % one day) came out at 0%. Further, the inhibition at 0.78 µg/mL in test [2] (Blumeria graminis, 24 h, 0.78 mg/L, wheat powdery mildew, read-out: Protective activity % one day) was determined as 15%. The inhibition at 1.56 µg/mL worked out at 40% in test [2] (Blumeria graminis, 24 h, 1.56 mg/L, wheat powdery mildew, read-out: Protective activity % one day) and 10% in test [3] (Blumeria graminis, 72 h, 1.56 mg/L, read-out: Therapy activity % 3 days). Further, the inhibition at 3.13 µg/mL in test [2] (Blumeria graminis, 24 h, 3.13 mg/L, wheat powdery mildew, read-out: Protective activity % one day) is 70%. Besides, the inhibition at 6.25 µg/mL worked out at 98% in test [2] (Blumeria graminis, 24 h, 6.25 mg/L, wheat powdery mildew, read-out: Protective activity % one day) and 20% in test [3] (Blumeria graminis, 72 h, 6.25 mg/L, read-out: Therapy activity % 3 days). Moreover, the inhibition at 12.5 µg/mL in test [2] (Blumeria graminis, 24 h, 12.5 mg/L, wheat powdery mildew, read-out: Protective activity % one day) turned out to be 100%; in test [3] (Blumeria graminis, 72 h, 12.5 mg/L, read-out: Therapy activity % 3 days) it was 100%. Also, in test [2] (Blumeria graminis, 24 h, 25 mg/L, wheat powdery mildew, read-out: Protective activity % one day), the inhibition at 25 µg/mL came out at 100%. In test [3] (Blumeria graminis, 72 h, 3.125 mg/L, read-out: Therapy activity % 3 days), the inhibition at 3.125 µg/mL was 15%.
